The record followed here is patent US20190351012A1, “TARGETING OF INTERFERON-STIMULATED GENE EXPRESSION TO TREAT INTERFERONOPATHIES” (New York University, priority 2018, published 2019).

This test has as its system ISG54 promoter nucleosomes in FS2 human diploid fibroblasts. Kind of test: MNase-PCR nucleosome mapping of the ISG54 promoter in FS2 fibroblasts. The class given is cell-based. An excerpt:
FIG. 2. […] (A) Nuclear extracts from HEK293T cells expressing activated recombinant ISGF3 (STAT1, STAT2, IRF9 and JAK1) or transfected with vector (Ctl) were programmed with G6TI-CAT (G6TI) or p107 (ISG54) templates. Radiolabeled RNA transcripts were resolved by polyacrylamide-urea gel electrophoresis. Arrow and arrowhead indicate position of the transcripts from G6TI-CAT and p107, respectively. (B) HeLa cells were either left untreated or treated with IFN-α in the absence or presence of TSA (TSA in vivo) before nuclei were isolated for run-on transcription. Where indicated, TSA was added to the elongation reaction in vitro (TSA in vitro). Specific signals from γ-actin, ISG15, ISG56, 6-16, 9-27, IRF9 and GBP transcription were quantified following filter hybridization and normalized to the signal for GAPDH, arbitrarily set to 100. Representative data from three independent experiments are shown. FS2 human diploid fibroblasts were starved for 72 h before being treated with IFN-α for 7.5 h in the absence or presence of TSA. Mononucleosomal DNA fraction was purified from MNase-digested nuclei and analyzed for nucleosome positions by PCR quantitation of protected fragments. All samples were quantified by real-time PCR, except the—53—+1 ISG54 fragment, which was quantified by gel electrophoresis (C). […]

In the case of `CC(/C=C/C(=O)NO)=C\[C@@H](C)C(=O)c1ccc(N(C)C)cc1` [TSA, Trichostatin A], the “nuclease sensitivity of segments around TATA box and initiation site” value (MNase) was “minimally affected”. Moreover, the “IFN-induced increase of nuclease sensitivity of −92 to −33 ISRE segment” value (co-treatment with IFN) is “not prevented”.
